Experimental data as given in patent US20220288034A1, “METHOD OF REDUCING ABERRANT IMMUNE RESPONSE OR RISK OF PROGRESSION IN COVID-19” (CELLTAXIS, LLC, priority 2021, published 2022).

Target: T1, LTA4H (Homo sapiens, UniProt P09960)
T1 sequence (P09960 1-611): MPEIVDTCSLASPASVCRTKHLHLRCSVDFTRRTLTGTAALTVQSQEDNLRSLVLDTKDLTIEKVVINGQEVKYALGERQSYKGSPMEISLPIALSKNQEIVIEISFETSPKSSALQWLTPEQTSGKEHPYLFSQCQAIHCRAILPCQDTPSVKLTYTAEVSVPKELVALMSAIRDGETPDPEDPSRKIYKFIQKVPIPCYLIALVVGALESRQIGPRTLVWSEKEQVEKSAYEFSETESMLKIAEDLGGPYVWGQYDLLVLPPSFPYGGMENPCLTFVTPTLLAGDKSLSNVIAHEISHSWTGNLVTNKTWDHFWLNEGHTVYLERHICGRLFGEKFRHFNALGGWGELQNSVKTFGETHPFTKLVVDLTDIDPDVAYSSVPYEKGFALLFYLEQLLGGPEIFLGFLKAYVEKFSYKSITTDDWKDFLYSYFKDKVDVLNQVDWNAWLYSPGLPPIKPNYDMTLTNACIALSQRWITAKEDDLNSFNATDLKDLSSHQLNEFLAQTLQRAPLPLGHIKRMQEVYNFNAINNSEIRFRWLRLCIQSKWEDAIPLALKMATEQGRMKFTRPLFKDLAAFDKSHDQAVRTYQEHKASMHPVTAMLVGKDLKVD
Experiment: In vitro inhibition of epoxide hydrolase enzymatic activity of LTA4H (LTB4 production)
Assay type: biochemical

For `O=C(O)c1ccc(CN2C[C@@H]3C[C@H]2CN3Cc2ccc(Oc3ccc(-c4ncco4)cc3)cc2)cc1` [acebilustat, 4-{[(1 S,4S)-5-({4-[4-oxazol-2-yl-phenoxy]phenyl}methyl)-2,5-diazabicyclo[2.2.1]heptan-2-yl]methyl}benzoic acid], the IC50 was 13.1 nM.
